Patent EP1561465A2, “Methods of use of fluoroquinolone compounds against bacteria” (LG Life Sciences, Ltd., priority 1999, dated 2001)
In brackets after ≈: the same amount, converted by molar mass. Where two headings read alike, the source gives them in different places.

Assays:
Format in all cases: cell-based
Shigella spp. [1] = assay: MIC by agar dilution (NCCLS M7-A4), 288 enteropathogenic isolates, gemifloxacin and 15 other antimicrobials; conditions: Shigella spp. N= 21
Procedure, shortened: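 Agar dilution with ~10^4 cfu/spot inoculum; plates incubated aerobically at 35 °C for 24 h, except C. jejuni, held microaerophilically for 48 h. MIC taken as lowest antibiotic concentration with no visible growth.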

Klebsiella pneumoniae = assay: MIC by NCCLS broth microdilution, 1100 Japanese clinical isolates 1997-1998; conditions: Klebsiella pneumoniae (n=35)
Enterobacter cloacae = assay: as above; conditions: Enterobacter cloacae (n=40)
Shigella spp. [2] = assay: MIC by agar dilution (NCCLS M7-A4), 288 enteropathogenic isolates, eight quinolones; conditions: Shigella spp. (n = 21)
Enterobacter aerogenes = assay: MIC by NCCLS broth microdilution, 1100 Japanese clinical isolates 1997-1998; conditions: Enterobacter aerogenes (n=35)
Streptococcus pneumoniae [3] = assay: as above; conditions: for MIC: Streptococcus pneumoniae quinolone resistant
Escherichia coli = assay: as above; conditions: for MIC50 / MIC90: Escherichia coli
Streptococcus pneumoniae [4] = assay: MIC by two-fold serial agar dilution, Sensitivity Disk agar-N (Kitasato isolates); conditions: Streptococcus pneumoniae; for MIC: read-out: MIC Range; for MIC50: read-out: MIC50
Streptococcus pneumoniae [5] = assay: MIC by broth microdilution (NCCLS), dried MicroScan panels, clinical isolates 1998-1999; conditions: for MIC90: Streptococcus pneumoniae
Hafnia alvei = assay: MIC by agar dilution (NCCLS M7-A4), 288 enteropathogenic isolates, eight quinolones; conditions: Hafnia alvei (n = 32)
[6] = Streptococcus pneumoniae erythromycin resistant (n=34)
[7] = Streptococcus pneumoniae erythromycin susceptible (n=11)
[8] = Escherichia coli ciprofloxacin susceptible (n=37)
[9] = Streptococcus pneumoniae (302 isolates)

N[C@@H]1[C@H]2CN(c3nc4c(cc3F)c(=O)c(C(=O)O)cn4-c3ccc(F)cc3F)C[C@@H]12 [Trovafloxacin, trovafloxacin]
MIC (Shigella spp. [1]; 24 h, read-out: MIC (mg/L) Range): ≤ 0.015 mg/L
MIC (Shigella spp. [1]; read-out: MIC (mg/L) 50%): ≤ 0.015 mg/L
MIC (Shigella spp. [1]; read-out: MIC (mg/L) 90%): ≤ 0.015 mg/L
MIC50 (Klebsiella pneumoniae): 0.032 µg/mL (≈ 0.0769 µM)
MIC Range (Klebsiella pneumoniae): ≤8 to 1000 ng/mL
MIC90 (Klebsiella pneumoniae; read-out: MIC90): 0.063 µg/mL (≈ 0.151 µM)
MIC50 (Enterobacter cloacae): 0.032 µg/mL (≈ 0.0769 µM)
MIC90 (Enterobacter cloacae): 1 µg/mL (≈ 2.4 µM)
MIC Range (Enterobacter cloacae): ≤8 to 2000 ng/mL
% Susceptible (Shigella spp. [2]): 100%
MIC50 (Shigella spp. [2]): ≤ 0.015 µg/mL
MIC90 (Shigella spp. [2]): ≤ 0.015 µg/mL
MIC Range (Shigella spp. [2]): ≤0.015 µg/mL
MIC Range (Enterobacter aerogenes): ≤8 to 125 ng/mL
MIC50 (Enterobacter aerogenes; Klebsiella aerogenes): 0.032 µg/mL (≈ 0.0769 µM)
MIC90 (Enterobacter aerogenes; Klebsiella aerogenes): 0.063 µg/mL (≈ 0.151 µM)
MIC50 (Streptococcus pneumoniae [3]; Streptococcus pneumoniae): 0.125 µg/mL (≈ 0.3 µM)
MIC90 (Streptococcus pneumoniae [3]; Streptococcus pneumoniae): 0.125 µg/mL (≈ 0.3 µM)
MIC Range (Streptococcus pneumoniae [3]; Streptococcus pneumoniae amoxicillin resistant (n=40)): 0.063 to 1 µg/mL
MIC Range (Streptococcus pneumoniae [3]; Streptococcus pneumoniae amoxicillin susceptible (n=35)): 0.063 to 1 µg/mL
MIC90 (Streptococcus pneumoniae [3]; [6]): 0.125 µg/mL (≈ 0.3 µM)
MIC Range (Streptococcus pneumoniae [3]; [6]): 0.063 to 1 µg/mL
MIC90 (Streptococcus pneumoniae [3]; [7]): 0.125 µg/mL (≈ 0.3 µM)
MIC Range (Streptococcus pneumoniae [3]; [7]): 0.063 to 0.125 µg/mL
MIC50 (Streptococcus pneumoniae [3]; Streptococcus pneumoniae, Streptococcus pneumoniae amoxicillin resistant (n=40), read-out: MIC50): 0.063 µg/mL (≈ 0.151 µM)
MIC50 (Streptococcus pneumoniae [3]; Streptococcus pneumoniae, Streptococcus pneumoniae amoxicillin susceptible (n=35), read-out: MIC50): 0.063 µg/mL (≈ 0.151 µM)
MIC90 (Streptococcus pneumoniae [3]; Streptococcus pneumoniae, Streptococcus pneumoniae amoxicillin susceptible (n=35), read-out: MIC90): 0.25 µg/mL (≈ 0.6 µM)
MIC50 (Streptococcus pneumoniae [3]; Streptococcus pneumoniae, Streptococcus pneumoniae erythromycin resistant (n=34), read-out: MIC50): 0.063 µg/mL (≈ 0.151 µM)
MIC (Streptococcus pneumoniae [3]; Streptococcus pneumoniae, strain TMS1): 0.25 µg/mL (≈ 0.6 µM)
MIC (Streptococcus pneumoniae [3]; Streptococcus pneumoniae, strain TMS2): 1 µg/mL (≈ 2.4 µM)
MIC Range (Escherichia coli; [8]): ≤8 to 250 ng/mL
MIC50 (Escherichia coli; Escherichia coli ciprofloxacin resistant (n=5)): 64 µg/mL (≈ 154 µM)
MIC90 (Escherichia coli; Escherichia coli ciprofloxacin resistant (n=5), values marked *: MIC80 value): 64 µg/mL (≈ 154 µM)
MIC50 (Escherichia coli; [8]): 0.016 µg/mL (≈ 0.0384 µM)
MIC90 (Escherichia coli; [8]): 0.032 µg/mL (≈ 0.0769 µM)
MIC90 (Streptococcus pneumoniae [4]): 0.125 µg/mL (≈ 0.3 µM)
MIC90 (Streptococcus pneumoniae [4]; 18 h, Ciprofloxacin-resistant (21), ciprofloxacin MIC ≥8 µg/ml, read-out: MIC90): 4 µg/mL (≈ 9.61 µM)
MIC (Streptococcus pneumoniae [4]; 18 h, Ciprofloxacin-susceptible (94)): 0.031 to 0.25 µg/mL (≈ 0.0745 to 0.6 µM)
MIC (Streptococcus pneumoniae [4]; 18 h, Erythromycin-resistant (37)): 0.063 to 2 µg/mL (≈ 0.151 to 4.8 µM)
MIC (Streptococcus pneumoniae [4]; 18 h, Minocycline-resistant (37)): 0.063 to 2 µg/mL (≈ 0.151 to 4.8 µM)
MIC (Streptococcus pneumoniae [4]; 18 h, Penicillin-resistant (19)): 0.031 to 0.25 µg/mL (≈ 0.0745 to 0.6 µM)
MIC (Streptococcus pneumoniae [4]; 18 h): 0.125 to 4 µg/mL (≈ 0.3 to 9.61 µM)
MIC50 (Streptococcus pneumoniae [4]; Ciprofloxacin-resistant (21)): 2 µg/mL (≈ 4.8 µM)
MIC50 (Streptococcus pneumoniae [4]; Ciprofloxacin-susceptible (94)): 0.063 µg/mL (≈ 0.151 µM)
MIC50 (Streptococcus pneumoniae [4]; Erythromycin-resistant (37)): 0.063 µg/mL (≈ 0.151 µM)
MIC90 (Streptococcus pneumoniae [4]; Erythromycin-resistant (37), read-out: MIC90): 0.25 µg/mL (≈ 0.6 µM)
MIC50 (Streptococcus pneumoniae [4]; Minocycline-resistant (37)): 0.063 µg/mL (≈ 0.151 µM)
MIC90 (Streptococcus pneumoniae [4]; Minocycline-resistant (37), read-out: MIC90): 0.25 µg/mL (≈ 0.6 µM)
MIC50 (Streptococcus pneumoniae [4]; Penicillin-resistant (19)): 0.063 µg/mL (≈ 0.151 µM)
MIC90 (Streptococcus pneumoniae [4]; Penicillin-resistant (19), read-out: MIC90): 0.25 µg/mL (≈ 0.6 µM)
MIC50 (Streptococcus pneumoniae [5]; [9]): 0.12 µg/mL (≈ 0.288 µM)
MIC Range (Streptococcus pneumoniae [5]; [9]): ≤0.015 to 1 µg/mL
MIC90 (Streptococcus pneumoniae [5]; Erythromycin-resistant (86)): 0.25 µg/mL (≈ 0.6 µM)
MIC90 (Streptococcus pneumoniae [5]; Erythromycin-sensitive (216)): 0.25 µg/mL (≈ 0.6 µM)
MIC90 (Streptococcus pneumoniae [5]; Penicillin-intermediate (124)): 0.25 µg/mL (≈ 0.6 µM)
MIC90 (Streptococcus pneumoniae [5]; Penicillin-resistant (80)): 0.25 µg/mL (≈ 0.6 µM)
MIC90 (Streptococcus pneumoniae [5]; Penicillin-sensitive (98)): 0.25 µg/mL (≈ 0.6 µM)
MIC90 (Streptococcus pneumoniae [5]; [9]): 0.25 µg/mL (≈ 0.6 µM)
% Susceptible (Hafnia alvei): 100%
MIC50 (Hafnia alvei): 0.06 µg/mL (≈ 0.144 µM)
